Residues, ends and D or L forms follow the SMILES beside them. *: point of attachment. Cbz = O=C(OCc1ccccc1)*; CH2F = FC*
How the values were obtained:
Type in all cases: biochemical
CPP32 [1] = assay: Fluorescence enzyme assay, determination of IC50 values (CPP32); conditions: recombinant enzyme; 30 minutes preincubation at room temperature; substrate Acetyl-Asp-Glu-Val-Asp-amino-4-methylcoumarin
Method: (§1) The substrate is Acetyl-Tyr-Val-Ala-Asp-amino-4-methylcoumarin (AMC) for the ICE assay and Acetyl-Asp-Glu-Val-Asp-amino-4-methylcoumarin for the CPP32, Mch2, Mch3 and Mch5 assays. Enzyme reactions were run in ICE buffer (25 mM HEPES, 1 mM EDTA, 0.1% CHAPS, 10% sucrose, pH 7.5) containing 2 mM DTT at room temperature in duplicate.
(§2) The enzyme and the compound of Formula 1 to be assayed were allowed to preincubate in the microtitre plate wells for 30 minutes at room temperature prior to the addition of substrate to initiate the reaction. Fluorescent AMC product formation was monitored for one hour at room temperature by measuring the fluorescence emission at 460 nm using an excitation wavelength of 360 nm. […]
(§3) The reference compound for this assay was Cbz-ValAlaAsp-H and the values are denoted in Table 1 as "Reference".

MCH-5 [2] = assay: Fluorescence enzyme assay, determination of IC50 values (Mch5); conditions: 30 minutes preincubation at room temperature; substrate Acetyl-Asp-Glu-Val-Asp-amino-4-methylcoumarin
Method: as §1, §2, §3

MCH-3 = assay: Fluorescence enzyme assay, determination of IC50 values (Mch3); conditions: 30 minutes preincubation at room temperature; substrate Acetyl-Asp-Glu-Val-Asp-amino-4-methylcoumarin
Method: as §1, §2, §3

MCH-2 [3] = assay: Fluorescence enzyme assay, determination of IC50 values (Mch2); conditions: 30 minutes preincubation at room temperature; substrate Acetyl-Asp-Glu-Val-Asp-amino-4-methylcoumarin
Method: as §1, §2, §3

mICE [4] = assay: Fluorescence enzyme assay, determination of IC50 values (ICE); conditions: recombinant enzyme; 30 minutes preincubation at room temperature; substrate Acetyl-Tyr-Val-Ala-Asp-amino-4-methylcoumarin
Method: as §1, §2, §3

MCH-2 [5] = assay: Determination of dissociation constant Ki and irreversible rate constant k3 for irreversible inhibitors (Mch2)
From the text: (§4) For the irreversible inhibition of a ICE/ced-3 Family Protease enzyme with a competitive irreversible inhibitor; using the model represented by the following formulas: [drawing 15] [drawing 16] The product formation at time t may be expressed as: [formula] where E, I, EI and E-I denote the active enzyme, inhibitor, non-covalent enzyme-inhibitor complex and covalent enzyme-inhibitor adduct, respectively. The Ki value is the overall dissociation constant of the reversible binding steps, and k3 is the irreversible rate constant. The [S] and Ks values are the substate concentration and dissociation constant of the substrate bound to the enzyme, respectively. [E]^T is the total enzyme concentration.
(§5) The above equations were used to determine the Ki and k3 values of a given inhibitor bound to a ICE/ced-3 family protease. Thus, a continuous assay was run for sixty minutes at various concentrations of the inhibitor and the substrate. The assay was formulated essentially the same as described above for generating the data in Table 1, except that the reaction was initiated by adding the enzyme to the substrate-inhibitor mixture. The Ki and k3 values were obtained by simulating the product AMC formation as a function of time according to Equation I. The results of this second assay are set forth below in Table 2. […]

mICE [6] = assay: Determination of dissociation constant Ki and irreversible rate constant k3 for irreversible inhibitors (ICE)
From the text: as §4, §5

CPP32 [7] = assay: Determination of dissociation constant Ki and irreversible rate constant k3 for irreversible inhibitors (CPP32)
From the text: as §4, §5

MCH-5 [8] = assay: Determination of dissociation constant Ki and irreversible rate constant k3 for irreversible inhibitors (Mch5)
From the text: as §4, §5

[9] = continuous assay for sixty minutes, reaction initiated by adding the enzyme

Row | Compound | IC50 (CPP32 [1]) | IC50 (MCH-5 [2]) | IC50 (MCH-3) | IC50 (MCH-2 [3]) | IC50 (mICE [4]) | k3/Ki (MCH-2 [5]; Reference) | Ki (MCH-2 [5]; [9]) | k3/Ki (mICE [6]; Reference) | Ki (mICE [6]; [9]) | k3/Ki (CPP32 [7]; Reference) | Ki (CPP32 [7]; [9]) | k3/Ki (MCH-5 [8]; Reference) | Ki (MCH-5 [8]; [9])
1 | CC(C)[C@H](NC(=O)OCc1ccccc1)C(=O)N[C@@H](C)C(=O)N[C@H](C=O)CC(=O)O [Ref., Cbz-ValAlaAsp-H] (Cbz-Val-Ala-Asp-aldehyde) | 47000 nM | 2960 nM | > 10000 nM | > 10000 nM | 64 nM | – | – | – | – | – | – | – | –
2 | Cbz-Val-Ala-Asp-CH2F [Reference] | – | – | – | – | – | 2,950 M^-1s^-1 | 594 nM | 214,000 M^-1s^-1 | 15 nM | 12,200 M^-1s^-1 | 820 nM | 83,300 M^-1s^-1 | 18 nM

Reference: patent EP0874850B1, “NOVEL TRICYCLIC COMPOUNDS FOR THE INHIBITION OF THE ICE/CED-3 PROTEASE FAMILY OF ENZYMES” (Idun Pharmaceuticals, Inc., priority 1996, dated 1998)
